Data from patent US20240325396A1, “METHODS FOR TREATING CANCER” (Allarity Therapeutics, Inc., priority 2023, published 2024).
Where two headings read alike, the source gives them in different places.

Tests used:
[1] = system: BRCA1 mutant MDA-MB-436 human breast cancer subcutaneous xenograft; assay: MDA-MB-436 subcutaneous xenograft model, anti-tumor activity; format: in vivo; conditions: 30 and 100 mg/kg
[2] = system: human acute myeloid leukemia (AML) MV-4-11-luc2/AcGFP; assay: AML MV-4-11-luc2/AcGFP survival model; format: in vivo
Advanced Solid Tumors = assay: Phase 1 study E7449-E044-101, tumor response (RECIST 1.1); format: in vivo, human
Protocol: The overall objective response rate (ORR; CR+PR) was 4.9% (n=2) with 1 subject each in the 600 mg (MTD) and 800 mg dose groups with a BOR of PR.

[3] = Phase 1 study, pharmacokinetics in plasma and urine; format: in vivo, human
Text: Food intake vs fasting comparisons were made after administration of the Cycle 1 Day 7 dose (FIG. 2A) and after the Cycle 1 Day 15 dose (FIG. 2B).

[4] = system: PARP activity (PAR levels); assay: Phase 1 study, PARP inhibition by change in PAR levels; format: in vivo, human
[5] = Safety: Phase 1 study with preliminary Phase 2 metastatic breast cancer data; format: in vivo
Protocol: Phototoxicity was in the Danish study primarily seen in 2 subjects treated during the hot summer period in 2018.
Anemia was registered in only few subjects at doses of 400 mg and above 3/42 (7%) (all grade 2) and 4/42 had increased liver enzymes (grade 2: 1/42 (2.6%) and grade 3: 3/42 (7%)).
Gastrointestinal side-effects were registered in some subjects: nausea 14/42 (33%), vomiting 7/42 (16%) and diarrhea 13/42 ([…]) all grade 1-2 apart from two cases of grade 3 diarrhea.

breast cancer = assay: Phase 2 breast cancer study, response; format: in vivo, human; conditions: twelve subjects evaluable for response
Text: A breast cancer study was initiated in June 2018 and discontinued for futility after enrollment of 16 subjects. Twelve subjects were evaluable for response: Nine had PD and three subjects had SD.

advanced ovarian cancer = assay: Phase 2 advanced ovarian cancer study QD vs BID, tumor response (RECIST 1.1), PFS; format: in vivo, human
Text: Patient population: Histologically or cytologically documented epithelial ovarian carcinoma including high-grade serous, endometrioid, clear cell, carcinosarcoma, undifferentiated, and mixed histological subtypes (independent of BRCA1 and homologous recombination (HR) deficiency (HRD) status) and with 2 or more previous chemotherapies/antibody therapies including treatment with other PARPi for advanced, refractory, or recurrent ovarian cancer.
The Interim Analysis Population (IAP) and safety population consisted of 28 patients (10 BID and 18 QD). Five patients received a first dose but dropped out before any tumor evaluation.
FIG. 4A and FIG. 4B show the best change in tumor diameter from baseline in the IAP QD population (FIG. 4A) and the IAP BID population (FIG. 4B). The mean of best change in tumor diameter from baseline in the QD population (FIG. 4A) was 4% tumor growth. The CR in the BID pollution (FIG. 4B) was unconfirmed, and consisted of target lymph node lesions that all turned normal. This CR patient also had CA125 CR unconfirmed status. The mean of best change in tumor diameter from baseline in the BID population (FIG. 4B) was 29% tumor reduction. The median PFS was not reached in the BID population, and was 50 days (1.6 months) in the QD population.

CA125 = assay: Phase 2 advanced ovarian cancer study, CA125 test response (GCIG); format: in vivo, human
Protocol: Only patients with a baseline of CA125 twice the upper normal limit of 70 unit/ml who received at least one dose were included in IAP. Only patients who had completed 2 cycles were determined to be evaluable for CA125 response. Two QD patients and four BID patients were below 70 units/ml. The CA125 test was confirmed with a second measurement that was lower than or within 10% of the previous measurement.

[6] = Phase 2 advanced ovarian cancer study, adverse events and dose modifications; format: in vivo, human
[7] = Myelotoxicity, ovarian cancer patients pooled with 14 metastatic breast cancer patients; format: in vivo, human; conditions: BID + QD (N = 42)
Protocol: Because myelotoxicity appeared to be a rare event for 2×-121, 14 patients with metastatic breast cancer that received 600 mg QD in a phase II trial were included in Table 10.

[8] = published Phase I trial (Plummer, Br J Cancer 2020); cited from earlier work
P-gp = assay: in vitro; conditions: mouse
[9] = system: SR human B cell lymphoma cell line; assay: Cell proliferation assay, SR; conditions: 192 h, read-out: IC50, inhibition of cell proliferation
[10] = system: BRCA1 mutant human triple negative breast cancer cell line MDA-MB-436; assay: Cell proliferation assay, MDA-MB-436; conditions: MDA-MB-436, 192 h, read-out: IC50, inhibition of cell proliferation
[11] = system: human acute myeloid leukemia MV-4-11-luc2/AcGFP cell line; assay: Cell proliferation assay, MV-4-11-luc2/AcGFP; conditions: 144 h, read-out: IC50, inhibition of cell proliferation

SMILES: O=c1[nH]nc2c3c(cccc13)N=C(CN1Cc3ccccc3C1)N2 [stenoparib, 8-(isoindolin-2-ylmethyl)-2,9-dihydro-3H-pyridazino [3,4,5-de] quinazolin-3-one]
- tolerability, body weight loss ([1]; 28 days): no significant body weight loss
- tumor growth inhibition ([1]; consecutive 28-day administration): statistically significant tumor growth inhibition
- disease burden as measured by luciferase signal ([2]; 100 mg/kg): Reduced disease burden
- survival benefit ([2]; 100 mg/kg for 28 days): statistically significant survival benefit
- tolerability, body weight loss ([2]; 10, 30 or 100 mg/kg): well-tolerated without any significant body weight loss
- disease burden by luciferase signal and survival benefit ([2]; 10 and 30 mg/kg): No statistically significant reduction in disease burden by luciferase signal or survival benefit
- BOR of stable disease (Advanced Solid Tumors; 13 subjects): 31.7%
- subjects with best overall response (BOR) of CR (Advanced Solid Tumors; 35 subjects assessed, investigator assessment, once daily dosing): None
- overall objective response rate (ORR; CR+PR) (Advanced Solid Tumors; n=2, one PR each at 600 mg and 800 mg): 4.9%
- increase of AUC by food ([3]; 600 mg dose, plasma): 10%
- reduction of Cmax by food ([3]; 600 mg dose, plasma): 60%
- accumulation based on AUC ([3]; Day -2 vs Day 15 administration): minimal accumulation
- Tmax ([3]; human, plasma, across subjects and dose groups, oral): 0.5 to 4 h
- administered dose recovered in urine ([3]; in vivo): less than 1.5%
- half-life ([3]; plasma, human subjects, oral, read-out: elimination half-life (converted)): ~8 h
- dose proportionality of absorption in plasma ([3]; single or multiple oral doses between 50 mg and 800 mg): proportional absorption
- inhibition in PAR levels from baseline ([4]; 600 mg (MTD), food effect cohort, 2 to 4 hours post-dose): up to 90%
- decrease in PAR levels ([4]; 24 hours post-dose): ≥ 70%
- MTD ([5]; administered orally once daily, phase I study): 600 mg
- diarrhea ([5]; human, in vivo): 25%
- nausea ([5]; human, in vivo): 33%
- vomiting ([5]; human, in vivo): 16%
- DLT ([5]; in vivo): limited to fatigue and one case of anaphylactic reaction
- cases of grade 3 diarrhea ([5]; in vivo): two
- hematotoxicity or hepatotoxicity ([5]; in vivo): no significant hematotoxicity or hepatotoxicity was observed
- subjects with PD (breast cancer): Nine
- subjects with SD (breast cancer): three
- Tumor response CR, patients n (%) (advanced ovarian cancer; 600 mg QD, N = 18 IAP): 0 (0%)
- Tumor response PD, patients n (%) (advanced ovarian cancer; 600 mg QD, N = 18 IAP): 9 (50%)
- Tumor response PR, patients n (%) (advanced ovarian cancer; 600 mg QD, N = 18 IAP): 0 (0%)
- Tumor response SD > 16w, patients n (%) (advanced ovarian cancer; 600 mg QD, N = 18 IAP): 1 (6%)
- Tumor response SD, patients n (%) (advanced ovarian cancer; 600 mg QD, N = 18 IAP): 3 (17%)
- Tumor response CR, patients n (%) (advanced ovarian cancer; BID 200 mg morning + 400 mg evening, N = 10 IAP, unconfirmed): 1 (10%) unconfirmed
- mean of best change in tumor diameter from baseline, tumor reduction (advanced ovarian cancer; BID population): 29%
- median PFS (advanced ovarian cancer; BID population): not reached
- Tumor response PD, patients n (%) (advanced ovarian cancer; BID, N = 10 IAP): 0 (0%)
- Tumor response PR, patients n (%) (advanced ovarian cancer; BID, N = 10 IAP): 0 (0%)
- Tumor response SD > 16w, patients n (%) (advanced ovarian cancer; BID, N = 10 IAP): 1 (10%)
- Tumor response SD, patients n (%) (advanced ovarian cancer; BID, N = 10 IAP): 3 (30%)
- mean of best change in tumor diameter from baseline, tumor growth (advanced ovarian cancer; QD population): 4%
- CA125 response PR, patients n (%) (CA125; BID, N = 6 IAP): 0 (0%)
- CA125 response SD, patients n (%) (CA125; BID, N = 6 IAP): 1 (17%)
- CA125 response CR, patients n (%) (CA125; BID, N = 6 IAP, unconfirmed): 1 (17%) unconfirmed
- CA125 response CR, patients n (%) (CA125; QD, N = 16 IAP): 0 (0%)
- CA125 response PR, patients n (%) (CA125; QD, N = 16 IAP): 0 (0%)
- CA125 response SD, patients n (%) (CA125; QD, N = 16 IAP): 3 (19%)
- Dose modifications: Discontinuation ([6]; 600 mg BID (N = 9)): 0%
- Dose modifications: Interruption ([6]; 600 mg BID (N = 9)): 50%
- Dose modifications: Reduction ([6]; 600 mg BID (N = 9)): 40%
- Adverse events Grade 1-4 ([6]; 600 mg BID (N = 10)): 70%
- Adverse events Grade 3-4 ([6]; 600 mg BID (N = 10)): 20%
- Adverse events Grade 5 ([6]; 600 mg BID (N = 10)): 0%
- Treatment-related adverse events Grade 1 ([6]; 600 mg BID (N = 10)): 70%
- Treatment-related adverse events Grade 2 ([6]; 600 mg BID (N = 10)): 60%
- Treatment-related adverse events Grade 3 ([6]; 600 mg BID (N = 10)): 20%
- Treatment-related adverse events Grade 4 ([6]; 600 mg BID (N = 10)): 0%
- Treatment-related adverse events Grade 5 ([6]; 600 mg BID (N = 10)): 0%
- Adverse events Grade 1-4 ([6]; 600 mg QD (N = 18)): 100%
- Adverse events Grade 3-4 ([6]; 600 mg QD (N = 18)): 61%
- Adverse events Grade 5 ([6]; 600 mg QD (N = 18)): 6%
- Dose modifications: Discontinuation ([6]; 600 mg QD (N = 18)): 11%
- Dose modifications: Interruption ([6]; 600 mg QD (N = 18)): 83%
- Dose modifications: Reduction ([6]; 600 mg QD (N = 18)): 28%
- Treatment-related adverse events Grade 1 ([6]; 600 mg QD (N = 18)): 94%
- Treatment-related adverse events Grade 2 ([6]; 600 mg QD (N = 18)): 83%
- Treatment-related adverse events Grade 3 ([6]; 600 mg QD (N = 18)): 33%
- Treatment-related adverse events Grade 4 ([6]; 600 mg QD (N = 18)): 0%
- Treatment-related adverse events Grade 5 ([6]; 600 mg QD (N = 18)): 0%
- Anemia Grade 1-4 [7]: 21%
- Anemia Grade 3-4 [7]: 7%
- Neutropenia Grade 1-4 [7]: 2%
- Neutropenia Grade 3-4 [7]: 0%
- Thrombocytopenia Grade 1-4 [7]: 0%
- Thrombocytopenia Grade 3-4 [7]: 0%
- myelotoxicity among adverse events [8]: no myelotoxicity among adverse events found in more than 5% of patients
- IC50 (P-gp): 1.39 µM
- IC50 (P-gp; with verapamil (P-gp antagonist; concentration not stated)): 1.82 µM
- IC50 [9]: 1.05 µM
- IC50 [10]: 0.219 µM
- IC50 [11]: 1.1 µM
- PARP activity in tumor tissue (PARP activity; single dose 30 mg/kg, 12 hours post-dose): low levels of PARP activity were observed
- PARP activity in tumor tissue (PARP activity; single dose 30 or 100 mg/kg, 1 and 6 hours post-dose): completely inhibited
- PARP activity in tumor tissue (PARP activity; single dose 30 or 100 mg/kg, 24 hours post-dose): restored to control levels
